According to US6358885B1, “Substituted phenylheterocyclic herbicides” (Mississippi State University, priority 1992, dated 2002):

Tests used:
Assay in all cases: Test B preemergence/postemergence greenhouse plant response rating 0 to 10
Settings in all cases: 0 to 10 scale
[1] = tested on: sorghum; type: in vivo, Sorghum bicolor
How it was run: (§1)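 Test chemicals were sprayed onto freshly planted seed and, concurrently, onto young plants between the one and four leaf stage. After a twelve- to sixteen-day greenhouse period, each species was visually compared with untreated controls.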

[2] = tested on: blackgrass; type: in vivo, Alopecurus myosuroides
How it was run: as §1

[3] = tested on: lambsquarters; type: in vivo, Chenopodium album
How it was run: as §1

[4] = tested on: cheatgrass; type: in vivo, Bromus secalinus
How it was run: as §1

[5] = tested on: chickweed; type: in vivo, Stellaria media
How it was run: as §1

[6] = tested on: bedstraw; type: in vivo, Galium aparine
How it was run: as §1

[7] = tested on: sugar beet; type: in vivo, Beta vulgaris
How it was run: as §1

[8] = tested on: crabgrass; type: in vivo, Digitaria spp.
How it was run: as §1

[9] = tested on: wild buckwheat; type: in vivo, Polygonum convolvulus
How it was run: as §1

[10] = tested on: rape; type: in vivo, Brassica napus
How it was run: as §1

[11] = tested on: barley; type: in vivo, Hordeum vulgare
How it was run: as §1

[12] = tested on: velvetleaf; type: in vivo, Abutilon theophrasti
How it was run: as §1

[13] = tested on: wheat; type: in vivo, Triticum aestivum
How it was run: as §1

[14] = tested on: purple nutsedge; type: in vivo, Cyperus rotundus
How it was run: as §1

[15] = tested on: wild oat; type: in vivo, Avena fatua
How it was run: as §1

[16] = tested on: giant foxtail; type: in vivo, Setaria faberii
How it was run: as §1

[17] = tested on: corn; type: in vivo, Zea mays
How it was run: as §1

[18] = tested on: barnyardgrass; type: in vivo, Echinochloa crus-galli
How it was run: as §1

[19] = tested on: cocklebur; type: in vivo, Xanthium pensylvanicum
How it was run: as §1

[20] = tested on: morningglory; type: in vivo, Ipomoea hederacea
How it was run: as §1

[21] = tested on: rice; type: in vivo, Oryza sativa
How it was run: as §1

[22] = tested on: soybean; type: in vivo, Glycine max
How it was run: as §1

[23] = tested on: cotton; type: in vivo, Gossypium hirsutum
How it was run: as §1

C=CCOC(=O)COc1cc(-c2nn3c(c2Cl)CCCC3)c(F)cc1Cl [Compound 62]
9: Plant response rating, Lambsquarter ([3]; POSTEMERGENCE, Rate 50 g/ha) | Plant response rating, Lambsquarter ([3]; PREEMERGENCE, Rate 50 g/ha) | Plant response rating, Bedstraw ([6]; POSTEMERGENCE, Rate 50 g/ha) | Plant response rating, Cocklebur ([19]; POSTEMERGENCE, Rate 50 g/ha) | Plant response rating, Morningglory ([20]; POSTEMERGENCE, Rate 50 g/ha)
1: Plant response rating, Blackgrass ([2]; POSTEMERGENCE, Rate 10 g/ha) | Plant response rating, Cheatgrass ([4]; POSTEMERGENCE, Rate 10 g/ha) | Plant response rating, Crabgrass ([8]; POSTEMERGENCE, Rate 10 g/ha) | Plant response rating, Rape ([10]; POSTEMERGENCE, Rate 10 g/ha) | Plant response rating, Barley ([11]; POSTEMERGENCE, Rate 10 g/ha) | Plant response rating, Barley ([11]; POSTEMERGENCE, Rate 50 g/ha) | Plant response rating, Wild oat ([15]; POSTEMERGENCE, Rate 10 g/ha) | Plant response rating, Giant foxtail ([16]; POSTEMERGENCE, Rate 10 g/ha)
5: Plant response rating, Corn ([17]; POSTEMERGENCE, Rate 50 g/ha) | Plant response rating, Cocklebur ([19]; POSTEMERGENCE, Rate 10 g/ha)
10: Plant response rating, Sugar beet ([7]; POSTEMERGENCE, Rate 10 g/ha) | Plant response rating, Sugar beet ([7]; POSTEMERGENCE, Rate 50 g/ha) | Plant response rating, Sugar beet ([7]; PREEMERGENCE, Rate 50 g/ha) | Plant response rating, Wild buckwheat ([9]; POSTEMERGENCE, Rate 50 g/ha) | Plant response rating, Velvetleaf ([12]; POSTEMERGENCE, Rate 50 g/ha) | Plant response rating, Cotton ([23]; POSTEMERGENCE, Rate 10 g/ha) | Plant response rating, Cotton ([23]; POSTEMERGENCE, Rate 50 g/ha)
6: Plant response rating, Rape ([10]; POSTEMERGENCE, Rate 50 g/ha) | Plant response rating, Morningglory ([20]; POSTEMERGENCE, Rate 10 g/ha)
8: Plant response rating, Lambsquarter ([3]; POSTEMERGENCE, Rate 10 g/ha) | Plant response rating, Bedstraw ([6]; POSTEMERGENCE, Rate 10 g/ha) | Plant response rating, Soybean ([22]; POSTEMERGENCE, Rate 50 g/ha)
7: Plant response rating, Bedstraw ([6]; PREEMERGENCE, Rate 10 g/ha) | Plant response rating, Bedstraw ([6]; PREEMERGENCE, Rate 50 g/ha) | Plant response rating, Velvetleaf ([12]; POSTEMERGENCE, Rate 10 g/ha)
3: Plant response rating, Chickweed ([5]; POSTEMERGENCE, Rate 50 g/ha) | Plant response rating, Giant foxtail ([16]; POSTEMERGENCE, Rate 50 g/ha) | Plant response rating, Barnyardgrass ([18]; POSTEMERGENCE, Rate 50 g/ha) | Plant response rating, Rice ([21]; POSTEMERGENCE, Rate 10 g/ha) | Plant response rating, Rice ([21]; POSTEMERGENCE, Rate 50 g/ha)
2: Plant response rating, Sorghum ([1]; POSTEMERGENCE, Rate 10 g/ha) | Plant response rating, Sorghum ([1]; POSTEMERGENCE, Rate 50 g/ha) | Plant response rating, Blackgrass ([2]; POSTEMERGENCE, Rate 50 g/ha) | Plant response rating, Cheatgrass ([4]; POSTEMERGENCE, Rate 50 g/ha) | Plant response rating, Crabgrass ([8]; POSTEMERGENCE, Rate 50 g/ha) | Plant response rating, Wild buckwheat ([9]; POSTEMERGENCE, Rate 10 g/ha) | Plant response rating, Velvetleaf ([12]; PREEMERGENCE, Rate 50 g/ha) | Plant response rating, Wheat ([13]; POSTEMERGENCE, Rate 10 g/ha) | Plant response rating, Wheat ([13]; POSTEMERGENCE, Rate 50 g/ha) | Plant response rating, Wheat ([13]; PREEMERGENCE, Rate 50 g/ha) | Plant response rating, Wild oat ([15]; POSTEMERGENCE, Rate 50 g/ha) | Plant response rating, Corn ([17]; POSTEMERGENCE, Rate 10 g/ha) | Plant response rating, Barnyardgrass ([18]; POSTEMERGENCE, Rate 10 g/ha) | Plant response rating, Soybean ([22]; POSTEMERGENCE, Rate 10 g/ha)
0: Plant response rating, Sorghum ([1]; PREEMERGENCE, Rate 50 g/ha) | Plant response rating, Blackgrass ([2]; PREEMERGENCE, Rate 10 g/ha) | Plant response rating, Blackgrass ([2]; PREEMERGENCE, Rate 50 g/ha) | Plant response rating, Cheatgrass ([4]; PREEMERGENCE, Rate 10 g/ha) | Plant response rating, Cheatgrass ([4]; PREEMERGENCE, Rate 50 g/ha) | Plant response rating, Chickweed ([5]; POSTEMERGENCE, Rate 10 g/ha) | Plant response rating, Chickweed ([5]; PREEMERGENCE, Rate 50 g/ha) | Plant response rating, Crabgrass ([8]; PREEMERGENCE, Rate 10 g/ha) | Plant response rating, Crabgrass ([8]; PREEMERGENCE, Rate 50 g/ha) | Plant response rating, Wild buckwheat ([9]; PREEMERGENCE, Rate 50 g/ha) | Plant response rating, Rape ([10]; PREEMERGENCE, Rate 50 g/ha) | Plant response rating, Barley ([11]; PREEMERGENCE, Rate 10 g/ha) | Plant response rating, Barley ([11]; PREEMERGENCE, Rate 50 g/ha) | Plant response rating, Nutsedge ([14]; POSTEMERGENCE, Rate 10 g/ha) | Plant response rating, Nutsedge ([14]; POSTEMERGENCE, Rate 50 g/ha) | Plant response rating, Nutsedge ([14]; PREEMERGENCE, Rate 50 g/ha) | Plant response rating, Wild oat ([15]; PREEMERGENCE, Rate 50 g/ha) | Plant response rating, Giant foxtail ([16]; PREEMERGENCE, Rate 10 g/ha) | Plant response rating, Giant foxtail ([16]; PREEMERGENCE, Rate 50 g/ha) | Plant response rating, Corn ([17]; PREEMERGENCE, Rate 50 g/ha) | Plant response rating, Barnyardgrass ([18]; PREEMERGENCE, Rate 10 g/ha) | Plant response rating, Barnyardgrass ([18]; PREEMERGENCE, Rate 50 g/ha) | Plant response rating, Cocklebur ([19]; PREEMERGENCE, Rate 10 g/ha) | Plant response rating, Cocklebur ([19]; PREEMERGENCE, Rate 50 g/ha) | Plant response rating, Morningglory ([20]; PREEMERGENCE, Rate 50 g/ha) | Plant response rating, Rice ([21]; PREEMERGENCE, Rate 50 g/ha) | Plant response rating, Soybean ([22]; PREEMERGENCE, Rate 50 g/ha) | Plant response rating, Cotton ([23]; PREEMERGENCE, Rate 10 g/ha) | Plant response rating, Cotton ([23]; PREEMERGENCE, Rate 50 g/ha)
